Results published in publication PMC11850127 (The Journal of Biological Chemistry, 2025).
“Also recorded” adds a separate entry of the source. Where two headings read alike, the source gives them in different places.

What was measured:
homomeric α10 nAChRs = settings: cited from earlier work
[1] = system: uninjected oocytes and oocytes injected with RIC-3 alone; format: cell-based, Xenopus laevis
(α4)3(β2)2 = settings: cited from earlier work
(α4)2(β2)3 = settings: cited from earlier work
[V13′T]α10 nAChRs [2] = biological target: T1, [V13′T]α10 nAChRs (Homo sapiens, UniProt Q9GZZ6, V280T); experiment: cell-based; format: cell-based, human (expressed in Xenopus laevis oocytes)
T1 sequence (Q9GZZ6 25-450 V280T limits assumed): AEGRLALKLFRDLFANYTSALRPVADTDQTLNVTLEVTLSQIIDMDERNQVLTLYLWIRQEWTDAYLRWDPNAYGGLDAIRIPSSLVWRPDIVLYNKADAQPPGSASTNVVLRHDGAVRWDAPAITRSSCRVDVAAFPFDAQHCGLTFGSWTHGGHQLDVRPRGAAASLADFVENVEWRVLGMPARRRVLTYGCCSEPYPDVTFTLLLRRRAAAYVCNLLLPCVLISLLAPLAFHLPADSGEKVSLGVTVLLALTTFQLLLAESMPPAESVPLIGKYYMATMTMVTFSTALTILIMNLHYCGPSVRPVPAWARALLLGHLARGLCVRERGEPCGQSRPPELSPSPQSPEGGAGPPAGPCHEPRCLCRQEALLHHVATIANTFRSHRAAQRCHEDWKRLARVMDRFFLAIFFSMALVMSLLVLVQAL

homomeric α9 nAChRs [3] = settings: cited from earlier work
[V13′T]α10 nAChR = format: cell-based, human (expressed in Xenopus laevis oocytes)
human α10 nAChR = format: cell-based, human (expressed in Xenopus laevis oocytes)
homomeric α9 nAChRs [4] = settings: cited from earlier work; remark: listed apart in the source
homomeric α7 nAChRs = settings: cited from earlier work
human α10 nAChRs = format: cell-based, human (expressed in Xenopus laevis oocytes)
α9α10 nAChRs = settings: cited from earlier work
α9 homomers = settings: cited from earlier work
[V13′T]α10 nAChRs [5] = biological target: T1, [V13′T]α10 nAChRs; format: cell-based, human (expressed in Xenopus laevis oocytes)
muscle type nAChRs = settings: cited from earlier work

With CCN1C[C@]2(COC(=O)c3ccccc3N3C(=O)C[C@H](C)C3=O)CC[C@H](OC)[C@@]34[C@@H]5C[C@H]6[C@H](OC)[C@@H]5[C@](O)(C[C@@H]6OC)[C@@](O)([C@@H](OC)[C@H]23)[C@@H]14 [methyllycaconitine] as the molecule, how does the “enabling of function/expression of homomeric α10 nAChRs” value (homomeric α10 nAChRs) read?
Its value is “can enable the function of homomeric α10 mammalian nAChRs”.

With CC(=O)OCC[N+](C)(C)C [ACh, Acetylcholine] as the molecule, how does the “ACh-induced current in uninjected oocytes” value ([1]; n = 10) read?
The value was “did not produce currents; also recorded: No ACh-induced currents were observed”.

What about the “ACh-induced current in oocytes injected with RIC-3 alone” value ([1]; n = 20) of the same molecule?
Its value is “did not produce currents; also recorded: No ACh-induced currents were observed”.

And the affinity for acetylcholine ((α4)3(β2)2)?
The affinity for acetylcholine was “low”.

And the affinity for acetylcholine ((α4)2(β2)3)?
The affinity for acetylcholine was “high”.

What about the “ACh-induced currents versus those induced by choline or nicotine” value ([V13′T]α10 nAChRs [2]) of the same molecule?
The value was “significantly larger”.

And the Hill slope ([V13′T]α10 nAChRs [2])?
Its Hill slope is 0.82 (0.67–1.01).

What about the ACh-induced currents (homomeric α9 nAChRs [3]) of the same molecule?
The ACh-induced currents was “small currents”.

What about the “effect of absence of Ca^2+ on ACh-evoked currents” value ([V13′T]α10 nAChR) of the same molecule?
The value was “did not substantially reduce ACh-evoked currents”.

What about the “mean ACh-induced response without actinomycin D” value ([V13′T]α10 nAChR) of the same molecule?
The value was −208 ± 227 nA.

What about the “range of ACh-induced response” value ([V13′T]α10 nAChR; n = 12) of the same molecule?
The value was −117 to −1120 nA.

What about the “ACh-induced current, average amplitude” value (human α10 nAChR) of the same molecule?
Its value is 17 nA.

What about the “mean ACh-induced response” value (human α10 nAChR) of the same molecule?
Its value is −7 ± 6 nA.

And the “response to ACh, α10 + RIC-3 versus α10 only” value (human α10 nAChR)?
The value was “significantly greater than those observed in α10-only injected oocytes; also recorded: significantly larger responses”.

And the “range of ACh-induced response” value (human α10 nAChR; n = 12)?
The value was −2 to −24 nA.

What about the ACh-induced currents (homomeric α9 nAChRs [4]) of the same molecule?
Its ACh-induced currents is “small currents”.

For C[N+](C)(C)CCO [choline], which EC50 ([V13′T]α10 nAChRs [2]) is on record?
The EC50 was 200 µM.

And the Hill slope ([V13′T]α10 nAChRs [2])?
Its Hill slope is 0.49 (0.41–0.60).

What about the agonist class ([V13′T]α10 nAChRs [2]) of the same molecule?
Its agonist class is “partial agonists”.

What about the “efficacy of choline relative to nicotine” value ([V13′T]α10 nAChRs [2]) of the same molecule?
Its value is “more efficacious than nicotine”.

What about the “efficacy relative to ACh” value ([V13′T]α10 nAChRs [2]) of the same molecule?
Its value is “lower efficacy than ACh”.

For O=C1C[C@@H]2OCC=C3CN4CC[C@]56c7ccccc7N1[C@H]5[C@H]2[C@H]3C[C@H]46 [strychnine], which “block of homomeric α7 nAChRs by strychnine” value (homomeric α7 nAChRs) is on record?
The value was “blocks”.

And the “effect of strychnine on α10 nAChR function, higher concentrations” value (human α10 nAChRs)?
Its value is “block α10 nAChR function”.

What about the “effect of strychnine on α10 plus RIC-3 oocytes, lower concentrations” value (human α10 nAChRs) of the same molecule?
The value was “further substantial increase in expression”.

And the “block of α9α10 nAChRs by strychnine” value (α9α10 nAChRs)?
Its value is “blocks”.

What about the “block of homomeric α9 nAChRs by strychnine” value (α9 homomers) of the same molecule?
Its value is “blocks”.

What about the “enabling of function/expression of homomeric α10 nAChRs” value (homomeric α10 nAChRs) of the same molecule?
Its value is “enable the expression of human α10 nAChRs; also recorded: enable functional expression of wild-type α10 homomers in oocytes; also recorded: can enable the function of homomeric α10 mammalian nAChRs”.

What about the “ACh-evoked response, percent of baseline” value ([V13′T]α10 nAChRs [5]) of the same molecule?
The value was 572 ± 131%.

What about the “effect of strychnine at low concentrations” value ([V13′T]α10 nAChRs [5]) of the same molecule?
The value was “enhanced [V13′T]α10 responses to ACh”.

And the “effect of strychnine at the highest concentration” value ([V13′T]α10 nAChRs [5])?
The value was “inhibitory effect; also recorded: almost entirely inhibited”.

What about the “effect of strychnine on [V13′T]α10 + RIC-3 responses” value ([V13′T]α10 nAChRs [5]) of the same molecule?
Its value is “further enhanced”.

And the “enhancement of ACh-evoked response” value ([V13′T]α10 nAChRs [5])?
Its value is 572 ± 131%.

What about the “maximum enhancement of ACh responses” value ([V13′T]α10 nAChRs [5]) of the same molecule?
The value was “greater than 5 fold”.

What about the “potentiation of ACh-evoked currents (in words)” value ([V13′T]α10 nAChRs [5]) of the same molecule?
The value was “rapid, significant potentiation”.

And the “strychnine concentration of maximum potentiation” value ([V13′T]α10 nAChRs [5])?
Its value is 1 µM.

With CN1[C@@H]2CC[C@H]1C[C@@H](OC(=O)C(CO)c1ccccc1)C2 (stereo partly drawn) [atropine] as the molecule, how does the “ACh-evoked response, percent of baseline” value ([V13′T]α10 nAChRs [5]) read?
The value was 230 ± 44%.

And the “enhancement of ACh-evoked response” value ([V13′T]α10 nAChRs [5])?
The value was 230 ± 44%.

What about the “onset and reversal of potentiation” value ([V13′T]α10 nAChRs [5]) of the same molecule?
The value was “rapid onset and reversal”.

And the “potentiation of ACh-evoked currents (in words)” value ([V13′T]α10 nAChRs [5])?
The value was “rapid, significant potentiation”.

Which results are given for α-bungarotoxin?
block of α7 homomers by α-bungarotoxin (homomeric α7 nAChRs): blocks; block of muscle type nAChRs by α-bungarotoxin (muscle type nAChRs): blocks; antagonist sensitivity of α10 homomers (human α10 nAChRs): blocked; also recorded: sensitive; block of ACh-evoked current (human α10 nAChRs): completely blocked; also recorded: sensitive; also recorded: inhibited; block of α9α10 nAChRs by α-bungarotoxin (α9α10 nAChRs): sensitive; also recorded: blocks; sensitivity of α9 to α-bungarotoxin (α9 homomers): sensitive; Hill slope ([V13′T]α10 nAChRs [5]): −1.17; IC50 ([V13′T]α10 nAChRs [5]): 0.331 µM

For CN1CCC[C@H]1c1cccnc1 [nicotine], which “action of nicotine on wild-type α9α10 nAChRs” value (α9α10 nAChRs) is on record?
The value was “antagonist”.

And the EC50 ([V13′T]α10 nAChRs [2])?
Its EC50 is 350 µM.

And the Hill slope ([V13′T]α10 nAChRs [2])?
The Hill slope was 0.59 (0.49–0.69).

And the agonist class ([V13′T]α10 nAChRs [2])?
Its agonist class is “partial agonist”.

What about the “efficacy relative to ACh” value ([V13′T]α10 nAChRs [2]) of the same molecule?
The value was “lower efficacy than ACh”.

With COc1cc2c(cc1OC)[C@@]13CCN4CC5=CCO[C@H]6CC(=O)N2[C@H]1[C@H]6[C@H]5C[C@H]43 [brucine] as the molecule, how does the “enabling of function/expression of homomeric α10 nAChRs” value (homomeric α10 nAChRs) read?
The value was “can enable the function of homomeric α10 mammalian nAChRs”.

With dihydro-β-erythroidine as the molecule, how does the “effect on ACh-evoked response” value ([V13′T]α10 nAChRs [5]; 3 μM, 10 min, n = 5) read?
Its value is “no significant activity; also recorded: not significantly altered”.
